Reference: patent US6525001B1, “Substituted pyrimidine and pyridine herbicides” (Mid-American Commercialization Corporation, priority 1997, dated 2003)

Columns and labels:
Experiment in all cases: Test B pre-/postemergence
Format in all cases: in vivo
Design in all cases: key: 0 is no effect; 10 is complete control
[1] = tested on: corn (Zea mays)
Procedure, shortened: (§1)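 Scored visually 0 (none) to 10 (complete control) against untreated plants after twelve to sixteen greenhouse days. Test chemicals, formulated in surfactant-containing non-phytotoxic solvent, applied to soil after planting and, separately, onto 1- to 4-leaf (2–18 cm) plants.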

[2] = tested on: velvetleaf (Abutilon theophrasti)
Procedure, shortened: as §1

[3] = tested on: crabgrass (Digitaria sanguinalis)
Procedure, shortened: as §1

[4] = tested on: soybean (Glycine max)
Procedure, shortened: as §1

[5] = tested on: cocklebur (Xanthium strumarium)
Procedure, shortened: as §1

[6] = tested on: wheat (Triticum aestivum)
Procedure, shortened: as §1

[7] = tested on: pigweed (Amaranthus retroflexus)
Procedure, shortened: as §1

[8] = tested on: blackgrass (Alopecurus myosuroides)
Procedure, shortened: as §1

[9] = tested on: momingglory (Ipomoea hederacea)
Procedure, shortened: as §1

[10] = tested on: wild oat (Avena fatua)
Procedure, shortened: as §1

[11] = tested on: broadleaf signalgrass (Brachiaria decumbens)
Procedure, shortened: as §1

[12] = tested on: sugar beet (Beta vulgaris)
Procedure, shortened: as §1

[13] = tested on: rape (Brassica napus)
Procedure, shortened: as §1

[14] = tested on: bedstraw (Galium aparine)
Procedure, shortened: as §1

[15] = Preemergence, Rate 62 g/ha, scale of 0 to 10

Cc1cnc(-n2ccc(C(F)(F)C(F)(F)F)n2)nc1C(=O)c1cccc(OC(F)(F)F)c1 [Compound 62]
7: Plant response rating, Velvetleaf ([2]; Rate 500 g/ha, Preemergence) | Plant response rating, Cocklebur ([5]; Rate 250 g/ha, Postemergence) | Plant response rating, Cocklebur ([5]; Rate 500 g/ha, Postemergence) | Plant response rating, Morningglory ([9]; Rate 500 g/ha, Preemergence)
4: Plant response rating, Blackgrass ([8]; Rate 500 g/ha, Postemergence) | Morningglory plant response rating ([9]; Rate 125 g/ha, Postemergence) | Plant response rating, Morningglory ([9]; Rate 250 g/ha, Preemergence) | Plant response rating, Wild oats ([10]; Rate 250 g/ha, Preemergence) | Plant response rating, Wild oats ([10]; Rate 500 g/ha, Preemergence) | B. signalgrass plant response rating ([11]; Rate 62 g/ha, Preemergence) | Plant response rating, B. signalgrass ([11]; Rate 125 g/ha, Preemergence) | Plant response rating, Bedstraw ([14]; Rate 500 g/ha, Postemergence)
3: Plant response rating, Velvetleaf ([2]; Rate 500 g/ha, Postemergence) | Crabgrass plant response rating ([3]; Rate 125 g/ha, Postemergence) | Plant response rating, Crabgrass ([3]; Rate 125 g/ha, Preemergence) | Plant response rating, Wheat ([6]; Rate 500 g/ha, Postemergence) | Morningglory plant response rating ([9]; Rate 62 g/ha, Postemergence) | Plant response rating, Wild oats ([10]; Rate 125 g/ha, Preemergence) | Plant response rating, Wild oats ([10]; Rate 500 g/ha, Postemergence) | Plant response rating, B. signalgrass ([11]; Rate 500 g/ha, Postemergence) | Plant response rating, Rape ([13]; Rate 500 g/ha, Postemergence) | Plant response rating, Rape ([13]; Rate 500 g/ha, Preemergence) | Bedstraw plant response rating ([14]; Rate 62 g/ha, Postemergence) | Bedstraw plant response rating ([14]; Rate 125 g/ha, Postemergence) | Plant response rating, Bedstraw ([14]; Rate 250 g/ha, Postemergence)
5: Plant response rating, Crabgrass ([3]; Rate 250 g/ha, Postemergence) | Cocklebur plant response rating ([5]; Rate 125 g/ha, Postemergence) | Plant response rating, Blackgrass ([8]; Rate 500 g/ha, Preemergence)
0: Plant response rating, Corn [1, 15] | Plant response rating, Corn ([1]; Rate 125 g/ha, Preemergence) | Plant response rating, Soybean [4, 15] | Plant response rating, Soybean ([4]; Rate 125 g/ha, Preemergence) | Plant response rating, Soybean ([4]; Rate 250 g/ha, Preemergence) | Plant response rating, Cocklebur [5, 15] | Plant response rating, Cocklebur ([5]; Rate 125 g/ha, Preemergence) | Plant response rating, Cocklebur ([5]; Rate 500 g/ha, Preemergence) | Plant response rating, Wheat [6, 15] | Plant response rating, Wheat ([6]; Rate 125 g/ha, Preemergence) | Plant response rating, Wheat ([6]; Rate 250 g/ha, Preemergence) | Plant response rating, Wheat ([6]; Rate 500 g/ha, Preemergence) | Plant response rating, Rape [13, 15] | Plant response rating, Bedstraw [14, 15]
10: Plant response rating, Crabgrass ([3]; Rate 500 g/ha, Preemergence) | Plant response rating, Redroot pigweed ([7]; Rate 250 g/ha, Preemergence) | Plant response rating, Redroot pigweed ([7]; Rate 500 g/ha, Postemergence) | Plant response rating, Redroot pigweed ([7]; Rate 500 g/ha, Preemergence) | Plant response rating, Morningglory ([9]; Rate 500 g/ha, Postemergence) | Plant response rating, Sugarbeets ([12]; Rate 125 g/ha, Preemergence) | Plant response rating, Sugarbeets ([12]; Rate 250 g/ha, Preemergence) | Plant response rating, Sugarbeets ([12]; Rate 500 g/ha, Preemergence)
8: Plant response rating, Crabgrass ([3]; Rate 500 g/ha, Postemergence) | Plant response rating, Redroot pigweed [7, 15] | Redroot pigweed plant response rating ([7]; Rate 62 g/ha, Postemergence) | Plant response rating, B. signalgrass ([11]; Rate 250 g/ha, Preemergence) | Plant response rating, Sugarbeets [12, 15]
2: Corn plant response rating ([1]; Rate 125 g/ha, Postemergence) | Plant response rating, Corn ([1]; Rate 250 g/ha, Postemergence) | Plant response rating, Corn ([1]; Rate 500 g/ha, Postemergence) | Plant response rating, Corn ([1]; Rate 500 g/ha, Preemergence) | Velvetleaf plant response rating ([2]; Rate 62 g/ha, Postemergence) | Velvetleaf plant response rating ([2]; Rate 125 g/ha, Postemergence) | Plant response rating, Velvetleaf ([2]; Rate 125 g/ha, Preemergence) | Plant response rating, Velvetleaf ([2]; Rate 250 g/ha, Postemergence) | Plant response rating, Velvetleaf ([2]; Rate 250 g/ha, Preemergence) | Plant response rating, Crabgrass [3, 15] | Crabgrass plant response rating ([3]; Rate 62 g/ha, Postemergence) | Plant response rating, Soybean ([4]; Rate 500 g/ha, Postemergence) | Cocklebur plant response rating ([5]; Rate 62 g/ha, Postemergence) | Wheat plant response rating ([6]; Rate 125 g/ha, Postemergence) | Plant response rating, Wheat ([6]; Rate 250 g/ha, Postemergence) | Plant response rating, Blackgrass ([8]; Rate 250 g/ha, Postemergence) | Plant response rating, Morningglory ([9]; Rate 125 g/ha, Preemergence) | B. signalgrass plant response rating ([11]; Rate 62 g/ha, Postemergence) | B. signalgrass plant response rating ([11]; Rate 125 g/ha, Postemergence) | Plant response rating, B. signalgrass ([11]; Rate 250 g/ha, Postemergence) | Rape plant response rating ([13]; Rate 62 g/ha, Postemergence) | Rape plant response rating ([13]; Rate 125 g/ha, Postemergence) | Plant response rating, Rape ([13]; Rate 250 g/ha, Postemergence) | Plant response rating, Rape ([13]; Rate 250 g/ha, Preemergence) | Plant response rating, Bedstraw ([14]; Rate 250 g/ha, Preemergence)
1: Corn plant response rating ([1]; Rate 62 g/ha, Postemergence) | Plant response rating, Corn ([1]; Rate 250 g/ha, Preemergence) | Plant response rating, Velvetleaf [2, 15] | Soybean plant response rating ([4]; Rate 62 g/ha, Postemergence) | Soybean plant response rating ([4]; Rate 125 g/ha, Postemergence) | Plant response rating, Soybean ([4]; Rate 250 g/ha, Postemergence) | Plant response rating, Soybean ([4]; Rate 500 g/ha, Preemergence) | Wheat plant response rating ([6]; Rate 62 g/ha, Postemergence) | Plant response rating, Blackgrass [8, 15] | Blackgrass plant response rating ([8]; Rate 62 g/ha, Postemergence) | Blackgrass plant response rating ([8]; Rate 125 g/ha, Postemergence) | Plant response rating, Blackgrass ([8]; Rate 125 g/ha, Preemergence) | Plant response rating, Blackgrass ([8]; Rate 250 g/ha, Preemergence) | Plant response rating, Morningglory [9, 15] | Plant response rating, Wild oats [10, 15] | Wild oats plant response rating ([10]; Rate 62 g/ha, Postemergence) | Wild oats plant response rating ([10]; Rate 125 g/ha, Postemergence) | Plant response rating, Wild oats ([10]; Rate 250 g/ha, Postemergence) | Plant response rating, Rape ([13]; Rate 125 g/ha, Preemergence) | Plant response rating, Bedstraw ([14]; Rate 125 g/ha, Preemergence)
6: Plant response rating, Bedstraw ([14]; Rate 500 g/ha, Preemergence)
9: Plant response rating, Crabgrass ([3]; Rate 250 g/ha, Preemergence) | Redroot pigweed plant response rating ([7]; Rate 125 g/ha, Postemergence) | Plant response rating, Redroot pigweed ([7]; Rate 125 g/ha, Preemergence) | Plant response rating, Redroot pigweed ([7]; Rate 250 g/ha, Postemergence) | Plant response rating, Morningglory ([9]; Rate 250 g/ha, Postemergence) | Plant response rating, B. signalgrass ([11]; Rate 500 g/ha, Preemergence) | Sugarbeets plant response rating ([12]; Rate 62 g/ha, Postemergence) | Sugarbeets plant response rating ([12]; Rate 125 g/ha, Postemergence) | Plant response rating, Sugarbeets ([12]; Rate 250 g/ha, Postemergence) | Plant response rating, Sugarbeets ([12]; Rate 500 g/ha, Postemergence)
